Laboratory results reported in ChEMBL document CHEMBL1201862, “PubChem BioAssay data set” (2004).
Values belong to the compound of their own block, whether it stands above or below them. Active and inactive are the calls of the source.

Columns and labels:
[1] = target: Cytochrome P450 3A4 (Homo sapiens, UniProt P08684);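 also: CYP3A4 tested as one member of a cytochrome P450 panel screen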
[2] = target: Cytochrome P450 2C9 (Homo sapiens, UniProt P11712)
[3] = target: T1, Bcl-2-related protein A1 (Mus musculus, UniProt Q07440); type: functional;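 also: confirmatory dose–response counterscreen on Bfl-1, used to check hits from a UBC13 polyubiquitin inhibitor campaign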
T1 sequence (Q07440 whole entry): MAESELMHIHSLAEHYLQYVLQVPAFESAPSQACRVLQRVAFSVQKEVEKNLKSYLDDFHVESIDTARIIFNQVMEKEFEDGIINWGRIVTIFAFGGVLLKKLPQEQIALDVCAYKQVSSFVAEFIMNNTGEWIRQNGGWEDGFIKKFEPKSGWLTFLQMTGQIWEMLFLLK

[4] = target: T2, Ubiquitin-conjugating enzyme E2 N (Homo sapiens, UniProt P61088); type: functional
T2 sequence (P61088 whole entry): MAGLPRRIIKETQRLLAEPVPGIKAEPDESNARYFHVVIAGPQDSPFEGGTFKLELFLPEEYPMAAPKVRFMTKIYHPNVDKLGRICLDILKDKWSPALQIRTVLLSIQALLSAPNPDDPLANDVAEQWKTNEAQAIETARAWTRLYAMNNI

[5] = target: T2, Ubiquitin-conjugating enzyme E2 N; type: functional; remark: listed apart in the source
[6] = target: Genome polyprotein (dengue virus type 2, UniProt P29990); assay: flavivirus cap methylation enzyme inhibition – biochemical, confirmation dose response, primary screen (AID 588689); type: functional
[7] = target: Dual specificity tyrosine-phosphorylation-regulated kinase 1A (Rattus norvegicus, UniProt Q63470); type: biochemical, Homo sapiens
[8] = target: T3, Type-1 angiotensin II receptor (Homo sapiens, UniProt P30556); assay: antagonism of angiotensin II type 1 receptor – cell-based, uHTS hits, selectivity assay for APJ receptor antagonist project, dose response (AID 463214); type: functional;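 also: antagonist potency against angiotensin II stimulated AT1 response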
T3 sequence (P30556 whole entry): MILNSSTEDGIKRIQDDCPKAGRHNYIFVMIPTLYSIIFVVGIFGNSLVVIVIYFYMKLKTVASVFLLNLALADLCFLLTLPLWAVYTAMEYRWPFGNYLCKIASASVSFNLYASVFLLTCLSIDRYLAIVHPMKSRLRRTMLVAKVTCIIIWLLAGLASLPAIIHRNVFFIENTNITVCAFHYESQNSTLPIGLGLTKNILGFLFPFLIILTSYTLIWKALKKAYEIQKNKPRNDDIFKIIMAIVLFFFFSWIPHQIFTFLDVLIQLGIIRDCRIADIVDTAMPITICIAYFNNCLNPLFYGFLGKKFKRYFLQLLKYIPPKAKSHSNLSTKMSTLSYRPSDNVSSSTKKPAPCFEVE

[9] = target: Beta-galactosidase (Escherichia coli, UniProt Q8VNN2); assay: PubChem AID 485352; type: functional
[10] = target: T4, Apoptotic protease-activating factor 1 (Homo sapiens, UniProt O14727); type: functional
T4 sequence (O14727 whole entry): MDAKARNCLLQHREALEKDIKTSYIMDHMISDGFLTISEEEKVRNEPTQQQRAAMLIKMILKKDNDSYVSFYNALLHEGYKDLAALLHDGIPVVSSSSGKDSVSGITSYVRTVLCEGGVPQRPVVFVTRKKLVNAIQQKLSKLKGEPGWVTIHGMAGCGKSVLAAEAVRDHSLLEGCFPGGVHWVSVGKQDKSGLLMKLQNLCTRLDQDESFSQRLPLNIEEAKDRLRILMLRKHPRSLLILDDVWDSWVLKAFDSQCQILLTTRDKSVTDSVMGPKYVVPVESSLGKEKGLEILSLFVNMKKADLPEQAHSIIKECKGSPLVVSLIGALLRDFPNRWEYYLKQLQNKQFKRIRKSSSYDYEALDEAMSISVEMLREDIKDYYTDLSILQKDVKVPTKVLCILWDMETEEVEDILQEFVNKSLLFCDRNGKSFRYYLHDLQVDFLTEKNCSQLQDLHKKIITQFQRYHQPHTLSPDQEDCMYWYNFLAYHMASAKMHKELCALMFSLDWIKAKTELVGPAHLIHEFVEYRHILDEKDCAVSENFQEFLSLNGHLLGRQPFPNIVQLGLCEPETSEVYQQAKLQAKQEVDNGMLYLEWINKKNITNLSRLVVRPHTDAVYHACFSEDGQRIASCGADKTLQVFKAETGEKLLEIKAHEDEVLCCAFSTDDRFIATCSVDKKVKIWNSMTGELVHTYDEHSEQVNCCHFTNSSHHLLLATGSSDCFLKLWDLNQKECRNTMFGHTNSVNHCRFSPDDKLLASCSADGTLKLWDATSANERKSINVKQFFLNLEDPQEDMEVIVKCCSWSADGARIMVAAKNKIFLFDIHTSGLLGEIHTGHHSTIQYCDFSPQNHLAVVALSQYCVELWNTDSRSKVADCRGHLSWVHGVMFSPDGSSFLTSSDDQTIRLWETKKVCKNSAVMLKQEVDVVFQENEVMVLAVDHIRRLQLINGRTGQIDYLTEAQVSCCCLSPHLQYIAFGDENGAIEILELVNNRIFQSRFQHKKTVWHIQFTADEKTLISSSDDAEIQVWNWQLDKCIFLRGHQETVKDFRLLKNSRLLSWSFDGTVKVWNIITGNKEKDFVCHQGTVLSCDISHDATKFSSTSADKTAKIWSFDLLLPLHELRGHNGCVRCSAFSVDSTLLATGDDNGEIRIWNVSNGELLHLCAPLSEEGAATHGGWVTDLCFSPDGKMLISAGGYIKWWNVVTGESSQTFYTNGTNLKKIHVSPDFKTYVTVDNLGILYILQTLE

[11] = target: T5, Cytochrome P450 1A2 (Homo sapiens, UniProt P05177);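 also: PubChem cytochrome P450 panel assay, CYP1A2 panel member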
T5 sequence (P05177 whole entry): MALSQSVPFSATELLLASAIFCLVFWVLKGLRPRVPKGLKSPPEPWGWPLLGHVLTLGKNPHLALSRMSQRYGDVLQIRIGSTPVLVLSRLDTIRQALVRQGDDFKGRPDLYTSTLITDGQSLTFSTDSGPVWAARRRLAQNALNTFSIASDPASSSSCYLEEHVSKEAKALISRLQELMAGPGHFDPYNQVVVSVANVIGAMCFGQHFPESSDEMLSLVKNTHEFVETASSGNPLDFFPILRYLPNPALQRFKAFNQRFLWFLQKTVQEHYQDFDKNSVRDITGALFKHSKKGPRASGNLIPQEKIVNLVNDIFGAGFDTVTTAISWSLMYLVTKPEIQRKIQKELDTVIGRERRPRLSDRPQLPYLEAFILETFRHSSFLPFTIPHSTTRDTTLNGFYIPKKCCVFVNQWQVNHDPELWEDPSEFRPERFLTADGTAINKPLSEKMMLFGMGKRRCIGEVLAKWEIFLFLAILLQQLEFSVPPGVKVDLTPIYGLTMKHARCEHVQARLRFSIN

[12] = target: Cytochrome P450 2C19 (Homo sapiens, UniProt P33261); assay: Cytochrome panel assay with activity outcomes. Panel member name: p450-cyp2c19 Compounds with AC50 equal or less than 10 uM are considered active; type: functional; conditions: read-out: AC50
[13] = target: T6, Short transient receptor potential channel 4 (Mus musculus, UniProt Q9QUQ5); assay: calcium entry via TRPC4 opening agents – cell-based, HEK293 TRPC4/mu-opioid, Fluo-4 calcium, dose response (AID 434937); type: functional
T6 sequence (Q9QUQ5 whole entry): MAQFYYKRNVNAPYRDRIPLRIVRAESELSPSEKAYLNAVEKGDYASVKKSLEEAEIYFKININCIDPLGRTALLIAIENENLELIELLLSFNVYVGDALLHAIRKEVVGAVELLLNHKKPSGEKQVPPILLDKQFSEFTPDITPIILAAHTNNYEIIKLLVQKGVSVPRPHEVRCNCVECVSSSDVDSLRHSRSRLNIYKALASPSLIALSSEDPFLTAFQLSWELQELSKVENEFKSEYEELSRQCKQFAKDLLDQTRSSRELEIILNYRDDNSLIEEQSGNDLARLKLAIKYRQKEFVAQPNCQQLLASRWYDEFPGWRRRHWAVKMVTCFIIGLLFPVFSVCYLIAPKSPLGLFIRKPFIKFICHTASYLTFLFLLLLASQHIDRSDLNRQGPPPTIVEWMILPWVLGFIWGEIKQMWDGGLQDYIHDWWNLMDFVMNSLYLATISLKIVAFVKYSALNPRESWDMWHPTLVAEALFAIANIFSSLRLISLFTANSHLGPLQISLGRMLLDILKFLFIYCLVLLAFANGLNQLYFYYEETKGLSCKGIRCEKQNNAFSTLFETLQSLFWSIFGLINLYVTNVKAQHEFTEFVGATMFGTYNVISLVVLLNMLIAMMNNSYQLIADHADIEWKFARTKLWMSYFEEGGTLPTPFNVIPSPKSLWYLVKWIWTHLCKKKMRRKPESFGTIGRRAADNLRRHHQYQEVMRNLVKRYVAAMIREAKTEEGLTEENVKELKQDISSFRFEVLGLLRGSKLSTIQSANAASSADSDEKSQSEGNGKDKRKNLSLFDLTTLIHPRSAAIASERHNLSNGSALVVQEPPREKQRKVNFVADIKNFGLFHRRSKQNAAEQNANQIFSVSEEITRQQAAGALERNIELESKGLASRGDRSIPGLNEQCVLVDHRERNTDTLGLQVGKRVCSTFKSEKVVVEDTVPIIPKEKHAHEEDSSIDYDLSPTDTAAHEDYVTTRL

[14] = system: SN12K1; assay: cells; type: functional; conditions: Homo sapiens
[15] = system: P388/ADR; assay: cells; type: functional; conditions: Mus musculus
[16] = system: Streptococcus sp. 'group A'; assay: Streptococcus pyogenes SK(-)GAS viability under kanamycin – luminescence, BacTiterGlo, confirmation, counter-screen for streptokinase expression inhibitor project, dose response (AID 1900); type: functional, organism-based
[17] = system: Streptococcus; assay: GAS UMAA2166 growth inhibition – luminescence, BacTiterGlo, counter-screen for streptokinase expression inhibitor project, dose response (AID 1915); type: functional, organism-based;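 also: potency for reduction of bacterial viability or growth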
[18] = target: T7, Sentrin-specific protease 8 (Homo sapiens, UniProt Q96LD8); type: functional
T7 sequence (Q96LD8 whole entry): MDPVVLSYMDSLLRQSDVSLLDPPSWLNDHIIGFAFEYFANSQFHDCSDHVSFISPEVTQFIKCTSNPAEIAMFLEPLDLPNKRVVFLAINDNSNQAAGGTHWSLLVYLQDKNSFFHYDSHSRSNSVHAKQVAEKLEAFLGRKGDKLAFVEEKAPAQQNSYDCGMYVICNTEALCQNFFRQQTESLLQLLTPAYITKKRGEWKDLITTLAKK

[19] = target: T7, Sentrin-specific protease 8; type: functional; remark: listed apart in the source

Beta-galactosidase, sequence (Q8VNN2 whole entry): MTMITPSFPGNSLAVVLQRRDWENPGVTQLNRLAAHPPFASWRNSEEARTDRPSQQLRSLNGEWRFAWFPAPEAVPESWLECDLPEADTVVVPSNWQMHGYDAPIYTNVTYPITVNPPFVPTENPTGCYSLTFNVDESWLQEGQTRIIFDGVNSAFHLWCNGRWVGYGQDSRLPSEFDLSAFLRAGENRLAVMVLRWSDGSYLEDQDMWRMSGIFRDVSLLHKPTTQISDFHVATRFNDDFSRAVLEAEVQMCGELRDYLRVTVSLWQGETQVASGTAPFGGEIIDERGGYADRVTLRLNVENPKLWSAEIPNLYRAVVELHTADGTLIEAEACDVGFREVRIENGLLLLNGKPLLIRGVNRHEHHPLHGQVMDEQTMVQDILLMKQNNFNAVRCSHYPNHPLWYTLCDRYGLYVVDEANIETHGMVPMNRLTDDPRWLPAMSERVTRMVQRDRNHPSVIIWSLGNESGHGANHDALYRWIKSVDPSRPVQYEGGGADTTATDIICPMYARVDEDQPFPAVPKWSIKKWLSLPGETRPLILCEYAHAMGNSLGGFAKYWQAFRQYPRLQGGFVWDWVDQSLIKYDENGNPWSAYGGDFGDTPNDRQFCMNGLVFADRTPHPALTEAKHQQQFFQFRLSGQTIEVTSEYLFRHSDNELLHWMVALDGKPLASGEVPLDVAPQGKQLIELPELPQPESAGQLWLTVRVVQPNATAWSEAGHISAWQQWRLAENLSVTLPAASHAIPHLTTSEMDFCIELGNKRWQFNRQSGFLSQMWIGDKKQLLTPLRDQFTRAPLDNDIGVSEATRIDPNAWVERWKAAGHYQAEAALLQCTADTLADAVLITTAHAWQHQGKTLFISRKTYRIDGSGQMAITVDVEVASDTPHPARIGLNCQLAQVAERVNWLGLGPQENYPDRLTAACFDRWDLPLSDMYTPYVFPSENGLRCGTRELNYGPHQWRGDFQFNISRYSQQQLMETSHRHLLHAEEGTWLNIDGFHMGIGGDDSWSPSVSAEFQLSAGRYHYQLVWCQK
Cytochrome P450 3A4, sequence (P08684 whole entry): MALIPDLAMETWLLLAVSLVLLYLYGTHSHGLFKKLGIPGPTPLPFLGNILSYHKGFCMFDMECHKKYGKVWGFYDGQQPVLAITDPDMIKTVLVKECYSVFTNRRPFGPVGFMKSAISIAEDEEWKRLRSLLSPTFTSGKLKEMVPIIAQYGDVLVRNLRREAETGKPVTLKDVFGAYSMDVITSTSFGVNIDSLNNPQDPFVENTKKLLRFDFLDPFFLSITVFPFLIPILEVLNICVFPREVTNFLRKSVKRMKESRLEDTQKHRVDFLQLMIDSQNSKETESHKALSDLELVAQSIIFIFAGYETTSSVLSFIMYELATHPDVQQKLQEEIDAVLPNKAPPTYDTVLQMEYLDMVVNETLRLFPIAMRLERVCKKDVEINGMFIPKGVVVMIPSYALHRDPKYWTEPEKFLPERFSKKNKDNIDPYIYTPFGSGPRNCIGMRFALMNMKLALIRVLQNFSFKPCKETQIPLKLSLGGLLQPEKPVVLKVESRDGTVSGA
Cytochrome P450 2C9, sequence (P11712 whole entry): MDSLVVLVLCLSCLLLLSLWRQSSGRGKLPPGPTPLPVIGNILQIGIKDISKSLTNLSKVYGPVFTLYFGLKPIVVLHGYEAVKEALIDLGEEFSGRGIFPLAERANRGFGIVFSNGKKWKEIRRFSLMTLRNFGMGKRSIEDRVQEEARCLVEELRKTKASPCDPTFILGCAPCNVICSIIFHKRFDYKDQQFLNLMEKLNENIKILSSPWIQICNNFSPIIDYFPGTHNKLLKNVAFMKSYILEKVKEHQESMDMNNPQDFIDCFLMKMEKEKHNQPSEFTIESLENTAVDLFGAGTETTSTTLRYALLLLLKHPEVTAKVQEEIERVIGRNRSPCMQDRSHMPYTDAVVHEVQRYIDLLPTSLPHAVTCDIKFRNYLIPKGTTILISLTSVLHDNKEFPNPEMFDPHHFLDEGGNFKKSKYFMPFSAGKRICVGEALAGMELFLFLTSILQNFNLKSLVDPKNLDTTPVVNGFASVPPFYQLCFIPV
Cytochrome P450 2C19, sequence (P33261 whole entry): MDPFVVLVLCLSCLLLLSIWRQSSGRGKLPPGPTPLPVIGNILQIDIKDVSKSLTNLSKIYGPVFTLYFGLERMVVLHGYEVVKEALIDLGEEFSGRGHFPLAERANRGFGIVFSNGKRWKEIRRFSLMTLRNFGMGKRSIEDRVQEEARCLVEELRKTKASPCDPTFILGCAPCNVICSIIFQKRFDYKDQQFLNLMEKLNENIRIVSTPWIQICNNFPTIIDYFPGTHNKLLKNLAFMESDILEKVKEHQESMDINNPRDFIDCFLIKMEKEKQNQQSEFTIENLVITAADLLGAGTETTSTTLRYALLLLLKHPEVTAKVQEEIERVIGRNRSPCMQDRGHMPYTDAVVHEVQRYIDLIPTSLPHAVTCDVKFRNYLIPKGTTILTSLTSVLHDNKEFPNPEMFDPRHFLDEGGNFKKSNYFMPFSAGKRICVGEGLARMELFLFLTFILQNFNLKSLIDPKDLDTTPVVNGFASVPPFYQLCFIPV
Genome polyprotein, sequence (P29990 2492-3391 limits assumed): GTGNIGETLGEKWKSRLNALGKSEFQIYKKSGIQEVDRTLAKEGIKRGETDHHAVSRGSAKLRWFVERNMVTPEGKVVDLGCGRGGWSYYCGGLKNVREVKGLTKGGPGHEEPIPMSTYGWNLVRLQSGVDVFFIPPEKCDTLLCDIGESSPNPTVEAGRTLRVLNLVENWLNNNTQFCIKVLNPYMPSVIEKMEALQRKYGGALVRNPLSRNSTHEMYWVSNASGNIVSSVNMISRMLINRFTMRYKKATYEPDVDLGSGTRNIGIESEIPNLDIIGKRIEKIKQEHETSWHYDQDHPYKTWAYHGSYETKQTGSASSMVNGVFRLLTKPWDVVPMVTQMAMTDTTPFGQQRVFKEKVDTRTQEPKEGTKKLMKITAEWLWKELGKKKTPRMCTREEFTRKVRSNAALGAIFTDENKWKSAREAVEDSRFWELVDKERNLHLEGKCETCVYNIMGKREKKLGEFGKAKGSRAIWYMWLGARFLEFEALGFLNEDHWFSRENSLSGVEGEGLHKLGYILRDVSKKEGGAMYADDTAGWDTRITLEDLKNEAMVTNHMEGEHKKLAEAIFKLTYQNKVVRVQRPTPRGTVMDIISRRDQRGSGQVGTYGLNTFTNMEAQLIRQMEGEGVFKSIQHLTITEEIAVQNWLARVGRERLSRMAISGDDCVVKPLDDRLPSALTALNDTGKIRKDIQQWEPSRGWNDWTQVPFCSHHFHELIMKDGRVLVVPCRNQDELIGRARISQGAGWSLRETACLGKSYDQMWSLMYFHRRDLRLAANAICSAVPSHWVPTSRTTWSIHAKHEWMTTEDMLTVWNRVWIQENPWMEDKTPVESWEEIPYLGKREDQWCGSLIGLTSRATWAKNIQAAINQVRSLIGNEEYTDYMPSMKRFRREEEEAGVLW

Compound: CN(C)C/C=C/C(=O)Nc1cccc(-c2c[nH]c3ncnc(Oc4ccc(NC(=O)CC(=O)Nc5ccc(F)cc5)cc4F)c23)c1
IC50 [3]: > 20 µM (inactive)
IC50 [4]: 2.28 µM (active)
IC50 [5]: 3.5 µM (active)

Compound: O=C1NC(=O)/C(=C/c2ccc(-c3cc(C(=O)O)ccc3Cl)o2)S1
IC50 [6]: 49.4 µM (active)
AC50 [7]: 2.56 µM (active)

Compound: N#CC(C#N)=CC1=C2OC(c3ccccc3)=CC(c3ccccc3)=C2CCC1
IC50 [8]: > 40 µM (not active)
EC50 [9]: > 40 µM (inactive)

Compound: CN1CCN(c2ncc3nc(-c4ccc(Cl)cc4)c(=O)n(C4CC4)c3n2)CC1
AC50 [1]: inconclusive

Compound: NC(=O)C#CC(N)=O
GI50 [14]: 12.9 µM (inactive)
GI50 [15]: 1.02 µM (active)

Compound: CC(C)c1ccc(OCC(=O)NNC(=S)NC(=O)C2CC2)cc1
EC50 [16]: 0.85 µM (active)
IC50 [3]: > 20 µM (inactive)
IC50 [4]: 6.97 µM (active)
IC50 [5]: 17.3 µM (active)
EC50 [17]: 1.33 µM (active)

Compound: CSc1ccc(C(=O)NCC(c2ccco2)N(C)C)cc1[N+](=O)[O-] (configuration not stated)
EC50 [13]: 0.0333 µM (active)

Compound: N#CC1(CCCN2CCCCC2)c2ccccc2CCc2ccccc21
IC50 [18]: 35.4 µM (active)
IC50 [19]: 43.4 µM (active)

Compound: CC(=O)Nc1ccc(C2(c3ccc(NC(C)=O)cc3)C(=O)Nc3ccccc32)cc1
EC50 [13]: 1.5 µM (active)

Compound: COc1ccccc1NCC(=O)c1ccc(Cl)cc1
IC50 [8]: 35.3 µM (not active)
EC50 [9]: > 40 µM (inactive)

Compound: O=C(CCCN1CCc2[nH]c3ccc(F)cc3c2C1)c1ccc(F)cc1
IC50 [10]: 7.9 µM (active)

Compound: Cn1c(=O)c2c(ncn2Cc2cccc(Cl)c2)n(C)c1=O
IC50 [3]: > 20 µM (inactive)
IC50 [4]: 11.2 µM (active)
IC50 [5]: 10.4 µM (active)

Now from value to compound:

AC50 [1]: inconclusive
AC50 [2]: 10 µM (inconclusive)
Compound: COCCNC(=O)Cn1cnc2ccc(S(=O)(=O)N3CCC(C)CC3)cc2c1=O

IC50 [10]: 45.8 µM (active)
Compound: O=C(NCC(c1ccco1)N1CCCC1)c1cccc(S(=O)(=O)Nc2ccc(Br)cc2)c1 (configuration not stated)

AC50 [1]: inconclusive
AC50 [11]: 1.78 µM (inconclusive)
AC50 [12]: 15.8 µM (inconclusive)
AC50 [2]: 14.1 µM (inconclusive)
Compound: O=C1C2C3C=CC(CC3)C2C(=O)N1/N=C/c1ccccc1O (configuration not stated)

EC50 [13]: 0.473 µM (active)
Compound: COc1ccc(C(CNc2nc(-c3cccnc3)nc3ccccc23)N(C)C)cc1 (configuration not stated)

IC50 [8]: 31.2 µM (not active)
EC50 [9]: > 40 µM (inactive)
Compound: CSCCC(NC(=O)COc1ccccc1)C(=O)OCC(=O)c1cc2ccccc2o1 (configuration not stated)

IC50 [3]: > 20 µM (inactive)
IC50 [4]: 4.6 µM (active)
IC50 [5]: 12.5 µM (active)
Compound: Cc1ccc(-c2oc3ncnc(N)c3c2-c2ccc(C)cc2)cc1

AC50 [1]: inconclusive
AC50 [12]: 28.2 µM (inconclusive)
Compound: CCOc1cccc(OCCCNCCCOC)c1

EC50 [13]: 5.31 µM (active)
Compound: COc1ccc(C(CNC(=O)c2cccc(NS(=O)(=O)c3ccc(C)c(F)c3)c2)N(C)C)cc1 (configuration not stated)

EC50 [13]: 0.596 µM (active)
Compound: CN(C)C(CNC(C(=O)Nc1ccc(F)cc1)c1ccccc1)c1ccccc1 (configuration not stated)
